The values that follow come from publication PMC8869507, “Gel-Forming of Self-Assembling Peptides Functionalized with Food Bioactive Motifs Modulate DPP-IV and ACE Inhibitory Activity in Human Intestinal Caco-2 Cells” (Biomedicines, 2022).

Data set [1] is described as follows: Atomic force microscopy (AFM) of peptide nanostructures. Format: physicochemical. The conditions noted are these: AFM tapping mode, 0.01% w/v in distilled water, sonicated 30 min, on mica. As for the experimental part: AFM measurements were captured in tapping mode using a Tosca system (Anton Paar, Graz, Austria) using single-beam silicon cantilever probes. Peptides were dissolved in distilled water at a final concentration of 0.01% w/v and sonicated for 30 min, the same day as imaging. Then, 5 μL of peptide solution were deposited for 5 min on freshly cleaved mica, and distilled water was used to remove peptides loosely bound to the mica.

Data set [2] relates to ACE. Also noted: method as in PMID 32223157. The following applies: metabolite of Lup1; ref [28]; cited from earlier work.
In data set [3] the test system is DPP-IV. Set-up: method as in PMID 32223157. The conditions noted are these: metabolite of Lup1; ref [28]; cited from earlier work.
The test system of data set [4] is ACE. The data set is described as follows: In vitro evaluation of ACE inhibition activity (HHL substrate). Type of data set: biochemical, porcine kidney. The conditions noted are these: 1 mg/mL; HHL 2.5 mM, pH 8.3, preincubation 15 min 37 °C, incubation 60 min 37 °C, HPLC of hippuric acid. As to the method:
(§1) Peptide IAVP (1 mg/mL) was tested as previously described evaluating its DPP-IV and ACE inhibitory activity, respectively. For the evaluation of in vitro ACE inhibitory activity, a biochemical assay was used (further details are reported in supplementary materials).
(§2) Supplementary Materials for Gel‐forming of self‐assembling peptides functionalized with food bioactive motifs modulate DPP‐IV and ACE inhibitory ac‐ tivity in human intestinal Caco‐2 cells
(§3) Raffaele Pugliese1,*, Martina Bartolomei2, Carlotta Bollati2, Giovanna Boschin2, Anna Arnoldi2, and Carmen […]
(§4) In vitro evaluation of ACE inhibition activity. […]
(§5) The evaluation of the inhibition of ACE activity was based on the comparison between the concentrations of HA in the presence or absence of the inhibitor (Inhibitor Blank). The phenomenon of autolysis of HHL to give HA was evaluated by a reaction blank, i.e. a sample with the higher inhibitor concentration but without the enzyme. The percentage of ACE inhibition was calculated considering the area of the HA peak with the following formula: […] where AIB is the area of HA in the Inhibitor Blank (IB) sample (i.e., sample with enzyme but without inhibitor), AN is the area of HA in the samples containing different inhibitor amounts, and ARB is the area of HA in the Reaction Blank (RB) sample (i.e., sample without enzyme and with inhibitor at the highest concentration). […]

For data set [5], the system named is DPP-IV. The data set can be described thus: In vitro DPP-IV activity assay. Type of data set: biochemical. The conditions noted are these: IAVP up to 1 mg/mL (1, 10, 100, 500 and 1000 μg/mL), Tris-HCl pH 8.0, H-Gly-Pro-AMC, 37°, 30 min, fluorescence 350/465 nm, triplicate. As to the method: as §1, §2, §3, §4, §5
For data set [6] the following is noted: non-covalently entrapped in RADA16; previously reported by the authors, reference not given; cited from earlier work.
Data set [7] has as its system DPP-IV and ACE. The following applies: cited from earlier work; for concentration encapsulated needed for positive effect on DPP-IV and ACE: encapsulated in RADA16 hydrogel, previously reported by the authors, reference not given; for capability of inhibiting DPP-IV and ACE: non-covalently entrapped into RADA16, ref [10]. An excerpt: (§6) However, such food-derived peptides show low stability, bioavailability (due to their rapid degradation by active peptidases located on the intestinal microvilli), and a poor propensity to form functional biomaterials (i.e., hydrogels), thus precluding their practical applications.

Data set [8] concerns proteases. The conditions noted are these: cited from earlier work; for bioavailability / resistance towards proteases: non-covalent encapsulation in RADA16 hydrogel vs plain solutions, previously reported by the authors, reference not given; for stability: non-covalently entrapped into RADA16, ref [10].
Excerpt: as §6

For data set [9], the system named is DPP-IV. The following applies: cited from earlier work; for DPP-IV activity in situ: human Caco-2 cells; for DPP-IV activity in situ / DPP-IV activity in vitro: ref [1]; for IC50: plain solutions, ref [4]. An excerpt: IAVPTGVA and LTFPGSAED (dubbed, respectively, Soy1 and Lup1) are two peptides derived from the hydrolysis of soybean glycinin and lupin β-conglutin, respectively. […] This difference was explained ...

In data set [10] the test system is HepG2 cells. The following applies: human HepG2 cells, ref [3],[5], cited from earlier work; for LDL uptake: LDL from the extracellular environment; for LDLR protein levels: through HMGCoAR inhibition. The text has this: (§7) IAVPTGVA and LTFPGSAED (dubbed, respectively, Soy1 and Lup1) are two peptides derived from the hydrolysis of soybean glycinin and lupin β-conglutin, respectively.

In data set [11] the test system is HMGCoAR. The following applies: in vitro; ref [1],[2],[3],[4]; cited from earlier work.
Excerpt: as §7

Data set [12] concerns ACE. The conditions noted are these: ACE activity expressed by Caco-2 cells, dose–response; no reference printed in the sentence (sentence before: ref [28]); cited from earlier work. An excerpt: This difference was explained ...
The test system of data set [13] is Caco-2 cells. The conditions noted are these: cited from earlier work.
In data set [14] the test system is ACE. Set-up: method as in BIOPEP. The conditions noted are these: from casein and soybean hydrolysates; ref BIOPEP; cited from earlier work.
Where [15] appears, read: DPP-IV expressed by Caco-2 cells, read-out: IC50 cellular DPP-IV.
Where [16] appears, read: purified enzymes, read-out: IC50 in vitro DPP-IV.

The IC50 is the concentration at which inhibition is half-maximal.

Where two headings read alike, the source gives them in different places.

Take RADA16: the nanostructure morphology entry in data set [1] was “self-assembles into long nanofibers”.
As for LTFPG [peptide cleaved from Lup1], in data set [2], the ACE inhibitory activity result is listed as “maintains its ACE inhibitory activity”. Also, the DPP-IV inhibitory activity result in data set [3] was “losing that against DPP-IV”.
For the substance “Ac-LTFPGSAEDGGGRADARADARADARADA-NH2 [fAP-Lup1, RADA16 functionalized at the N-terminus with Lup1 through a three-glycines spacer]”, the nanostructure morphology entry in data set [1] is “did not form nanofibers, but instead led to the formation of sparse round aggregates”.
As for “IAVP [small peptide from degradation of Soy1]”, the “reduction of in vitro ACE activity” value in data set [4] came to 20.1 ± 0.5%. In addition, in [5], the DPP-IV inhibitory activity result was “totally ineffective on DPP-IV”.
For LTFPGSAED [Lup1], the “release from RADA16 hydrogel” value in data set [6] is “regularly delivered by the RADA16 hydrogel during the 360 min of controlled release tests”. In data set [7], the “concentration encapsulated needed for positive effect on DPP-IV and ACE” value is listed as “more than 100 μM”; the “capability of inhibiting DPP-IV and ACE” value is “significantly improved as well as their capability of inhibiting DPP-IV and ACE”. Further, in data set [8], the bioavailability entry is listed as “higher bioavailability”, the resistance towards proteases entry is “higher resistance towards the proteases” and the stability entry is on record as “significantly improved”. Also, in [9], the “DPP-IV activity in situ” value was “drop the in vitro and in situ human Caco-2 cells DPP-IV activity”; the “DPP-IV activity in vitro” value was “drop the in vitro and in situ human Caco-2 cells DPP-IV activity”. The IC50 in data set [9] (setting [15]) was 208 µM. Moreover, the IC50 in data set [9] (setting [16]) was 228 µM. Besides, in [10], the LDL uptake entry is reported as “improved the ability of hepatic cells to uptake LDL” and the LDLR protein levels result is on record as “upregulation of the LDLR protein levels”. The HMGCoAR inhibition result in data set [11] was “act as in vitro HMGCoAR and DPP-IV inhibitors”. For the same substance, in [12], the IC50 was 13.7 µM. In addition, the “transport across the intestinal barrier” value in [13] is listed as “able to across the intestinal barrier”.
For IAVPTGVA [Soy1], in data set [7], the “concentration encapsulated needed for positive effect on DPP-IV and ACE” value was “more than 100 μM”; the “capability of inhibiting DPP-IV and ACE” value is “significantly improved as well as their capability of inhibiting DPP-IV and ACE”. For the same substance, in data set [8], the bioavailability entry is given as “higher bioavailability”, the resistance towards proteases result was “higher resistance towards the proteases” and the stability result was “significantly improved”. In addition, in data set [9], the “DPP-IV activity in situ” value was “drop the in vitro and in situ human Caco-2 cells DPP-IV activity”; the “DPP-IV activity in vitro” value is “drop the in vitro and in situ human Caco-2 cells DPP-IV activity”. Also, the 50% inhibitory concentration (IC50) in data set [9] (setting [15]) is 223 µM. For the same substance, the IC50 in data set [9] (setting [16]) was 106 µM. For the same substance, in data set [10], the LDL uptake result was “improved the ability of hepatic cells to uptake LDL” and the LDLR protein levels entry is given as “upregulation of the LDLR protein levels”. In addition, the HMGCoAR inhibition entry in data set [11] was “act as in vitro HMGCoAR and DPP-IV inhibitors”. Further, the IC50 in data set [12] was 14.7 µM. The “transport across the intestinal barrier” value in [13] (Caco-2 trans-epithelial transport, ref [28],[29]) is “able to across the intestinal barrier”. In addition, the “break-down fragments by intestinal peptidases” value in data set [13] (apical side of Caco-2 cells, trans-epithelial transport, ref [29]) is “metabolized in three breakdown fragments (AVPTGVA, IAVP, and IAV)”. Further, the “susceptibility to metabolic activity of peptidase” value in data set [13] (apical side of human intestinal Caco-2 cells, compared with Lup1, ref [28]) was “more suitable for the metabolic activity of peptidase”.
With “Ac-IAVPTGVAGGGRADARADARADARADA-NH2 [fAP-Soy1, RADA16 functionalized at the N-terminus with Soy1 through a three-glycines spacer]”, the nanostructure morphology entry in [1] is on record as “short single nanofibers”.
Turning to AVP, the “known ACE inhibitor peptide” value in [14] is “known ACE inhibitor peptides”.
